According to paper PMC4237480, “Cytochrome P450 induction properties of food and herbal-derived compounds using a novel multiplex RT-qPCR in vitro assay, a drug–food interaction prediction tool” (Food Science & Nutrition, 2014):
Each block holds one molecule with its values, some of them ahead of it.

Key:
CYP2D6 [1] = test: western blot analysis, CYP2D6 protein expression in HepG2 cells; assay type: in vitro ADME, human; settings: for effect on CYP2D6 protein expression: HepG2 cells, 48 h, western blot densitometry normalized to β-actin, vs DMSO control
[2] = tested on: PXR-responsive genes like CYP3A4; design: method as in Ruhl et al. [2004]; settings: HepG2 cells; ref Ruhl et al. [2004]; cited from earlier work
[3] = tested on: cytochrome P450 (CYP) 3A4; design: method as in Sunaga et al. [2012]; settings: ref Sunaga et al. [2012]; cited from earlier work
CYP3A4 [4] = test: western blot analysis, CYP3A4 protein expression in HepG2 cells; settings: for effect on CYP3A4 protein expression: HepG2 cells, 48 h, western blot densitometry normalized to β-actin, vs DMSO control
CYP1A2 [5] = tested on: CYP1A2; design: method as in Pekthong et al. ([2008]); settings: human microsomes; ref Pekthong et al. ([2008]); cited from earlier work
CYP2C9 [6] = tested on: CYP2C9; design: method as in Pekthong et al. ([2008]); settings: human microsomes; ref Pekthong et al. ([2008]); cited from earlier work
CYP3A4 [7] = tested on: CYP3A4; design: method as in Pekthong et al. ([2008]); settings: human microsomes; ref Pekthong et al. ([2008]); cited from earlier work
CYP1A2 [8] = tested on: CYP1A2; design: method as in Pekthong et al. [2009]; settings: human hepatocytes; ref Pekthong et al. [2009]; cited from earlier work
2C9 = tested on: 2C9; design: method as in Pekthong et al. [2009]; settings: human hepatocytes; ref Pekthong et al. [2009]; cited from earlier work
3A4 = tested on: 3A4; design: method as in Pekthong et al. [2009]; settings: human hepatocytes; ref Pekthong et al. [2009]; cited from earlier work
CYP1A2 [9] = test: western blot analysis, CYP1A2 protein expression in HepG2 cells; assay type: in vitro ADME, human; settings: for effect on CYP1A2 protein expression: HepG2 cells, 48 h, western blot densitometry normalized to β-actin, vs DMSO control
Description: All compounds were diluted with concentrated DMSO.

CYP1A2 [10] = test: multiplex RT-qPCR, CYP1A2 mRNA expression in HepG2 cells; settings: for concentration with statistically significant CYP1A2 mRNA induction: P < 0.05 vs control; for concentration from which CYP1A2 mRNA induction was detected/observed: not necessarily statistically significant
CYP3A4 [11] = test: multiplex RT-qPCR, CYP3A4 mRNA expression in HepG2 cells
CYP3A4 [12] = tested on: CYP3A4; design: method as in Graber-Maier et al. [2010]; settings: intestinal cells; ref Graber-Maier et al. [2010]; cited from earlier work
CYP1A2 [13] = tested on: CYP1A2; design: method as in Chow et al. [2010]; settings: healthy subjects, ref Chow et al. [2010], cited from earlier work
CYP3A4 [14] = tested on: CYP3A4; design: method as in Chow et al. [2010]; settings: healthy subjects; ref Chow et al. [2010]; cited from earlier work
CYP2D6 [15] = tested on: CYP2D6; design: method as in Chow et al. [2010]; settings: healthy subjects; ref Chow et al. [2010]; cited from earlier work
CYP2C9 [16] = tested on: CYP2C9; design: method as in Chow et al. [2010]; settings: healthy subjects; ref Chow et al. [2010]; cited from earlier work
CYP2D6 [17] = test: multiplex RT-qPCR, CYP2D6 mRNA expression in HepG2 cells; settings: concomitant furafylline and omeprazole, control treated with omeprazole
CYP1A2 [18] = tested on: CYP1A2; design: method as in Wen et al. [2002]; settings: 48 h exposure, cultured human hepatocytes; ref Wen et al. [2002]; cited from earlier work
[19] = HepG2, concomitant furafylline and omeprazole, control treated with omeprazole

Structure (SMILES): C=C1CC[C@@H]2[C@](C)(CO)[C@H](O)CC[C@@]2(C)[C@@H]1C/C=C1/C(=O)OC[C@H]1O [andrographolide]
effect on CYP2D6 protein expression (CYP2D6 [1]): up-regulated
mean up-regulation of the CYP2D6 protein (CYP2D6 [1]; all concentrations tested, HepG2, 48 h): less than twofold changes
IC50 (CYP1A2 [5]): > 100000 nM
IC50 (CYP2C9 [6]): > 100000 nM
mRNA expression of CYP1A2 (CYP1A2 [8]): decrease
mRNA expression of CYP2C9 (2C9): decrease
mRNA expression of CYP3A4 (3A4): decrease
effect on CYP3A4 protein expression (CYP3A4 [4]): did not affect

Structure (SMILES): Cc1nc2c([nH]1)c(=O)n(C)c(=O)n2Cc1ccco1 [furafylline]
CYP1A2 protein expression in omeprazole-induced cells (CYP1A2 [9]; [19]): reduction was statistically insignificant
CYP2D6 protein expression, furafylline with omeprazole (CYP2D6 [1]; [19]): no significant changes
CYP1A2 mRNA expression in omeprazole-induced cells (CYP1A2 [10]; HepG2, furafylline 2 h before omeprazole, concomitant treatment, compared with omeprazole-treated cells (control)): significantly reduced
CYP2D6 mRNA expression, furafylline with omeprazole (CYP2D6 [17]): no significant changes
CYP3A4 mRNA expression, furafylline with omeprazole (CYP3A4 [11]; [19]): no significant changes
CYP3A4 protein expression, furafylline with omeprazole (CYP3A4 [4]; [19]): no significant changes

Structure (SMILES): CC(C)=CCC/C(C)=C/COc1c2ccoc2cc2oc(=O)ccc12 [bergamottin]
effect on CYP1A2 protein expression (CYP1A2 [9]): only a slight induction
effect on CYP2D6 protein expression (CYP2D6 [1]): did not affect
levels of CYP1A2 protein and mRNA (CYP1A2 [18]): increased levels
CYP1A2 mRNA induction (CYP1A2 [10]; 1 μmol/L, HepG2, 48 h, Ct 33 assumed for untreated control): ~11 fold increase
concentration from which CYP1A2 mRNA induction was detected/observed (CYP1A2 [10]; HepG2, 48 h): ≥ 1000 nM
effect on CYP3A4 protein expression (CYP3A4 [4]): did not affect

Structure (SMILES): CC(=O)N1CCN(c2ccc(OCC3COC(Cn4ccnc4)(c4ccc(Cl)cc4Cl)O3)cc2)CC1 (centres unmarked) [ketoconazole, reference compound]
effect on CYP3A4 protein expression (CYP3A4 [4]): differences were not proved to be significant

Structure (SMILES): O=c1cc(-c2ccccc2)oc2ccc3ccccc3c12 [β-naphthoflavone]
concentration with significantly higher CYP1A2 protein (mean relative intensity) (CYP1A2 [9]; HepG2, 48 h, western blot): ≥ 5000 nM
effect on CYP1A2 protein expression (CYP1A2 [9]): significantly higher
effect on CYP2D6 protein expression (CYP2D6 [1]): remained either unchanged or there were slight changes that were statistically insignificant
IC50 (CYP1A2 [5]): 85 nM
CYP1A2 mRNA up-regulation (CYP1A2 [10]; 5 μmol/L, HepG2, 48 h, estimated, Ct 33 assumed for untreated control): more than sixfold change
CYP1A2 mRNA up-regulation (CYP1A2 [10]; 50 μmol/L, HepG2, 48 h, estimated, Ct 33 assumed for untreated control): 26 fold change
concentration from which CYP1A2 mRNA induction was detected/observed (CYP1A2 [10]; HepG2, 48 h): ≥ 5000 nM
effect on CYP3A4 protein expression (CYP3A4 [4]): remained either unchanged or there were slight changes that were statistically insignificant

Further lines, with some results ahead:

effect on CYP2D6 protein expression (CYP2D6 [1]): did not appear to have any effects
effect on CYP3A4 protein expression (CYP3A4 [4]): did not appear to have any effects
Structure (SMILES): CC(C)=CCC/C(C)=C/C=C/C(C)=C/C=C/C(C)=C/C=C/C=C(C)/C=C/C=C(C)/C=C/C=C(\C)CCC=C(C)C [lycopene]
activation potential on PXR-responsive genes like CYP3A4 [2]: no activation potential
inhibition of CYP3A4-mediated drug metabolism [3]: does not inhibit

effect on CYP1A2 protein expression (CYP1A2 [9]): statistically insignificant
effect on CYP2D6 protein expression (CYP2D6 [1]): no effects
CYP1A2 mRNA up-regulation (CYP1A2 [10]; 10 μmol/L, HepG2, 48 h, Ct 33 assumed for untreated control): 24 fold changes
concentration with statistically significant CYP1A2 mRNA induction (CYP1A2 [10]; HepG2, 48 h): ≥ 10000 nM
concentration from which CYP1A2 mRNA induction was detected/observed (CYP1A2 [10]; HepG2, 48 h): ≥ 1000 nM
CYP3A4 mRNA induction (CYP3A4 [11]; 0.1 μmol/L, HepG2, 48 h): < 1.5 fold change
concentration with significant CYP3A4 mRNA induction (CYP3A4 [11]; HepG2, 48 h, P < 0.05 vs control): 100 nM
Structure (SMILES): COc1ccc2[nH]c([S+]([O-])Cc3ncc(C)c(OC)c3C)nc2c1 (centres unmarked) [omeprazole]

effect on CYP2D6 protein expression (CYP2D6 [1]): does not affect significantly
effect on CYP3A4 protein expression (CYP3A4 [4]): significant induction
Structure (SMILES): COc1cc(/C=C/C(=O)CC(=O)/C=C/c2ccc(O)c(OC)c2)ccc1O [curcumin]
mRNA expression of CYP3A4 (CYP3A4 [12]): did not affect

effect on CYP1A2 protein expression (CYP1A2 [9]): insignificant
CYP2D6 protein induction, average (CYP2D6 [1]; 0.1 μmol/L, HepG2, 48 h): more than twofold changes
concentration with statistically significant CYP1A2 mRNA induction (CYP1A2 [10]; HepG2, 48 h): 50000 nM
concentration from which CYP1A2 mRNA induction was detected/observed (CYP1A2 [10]; HepG2, 48 h): ≥ 100 nM
Structure (SMILES): Oc1ccc(/C=C/c2cc(O)cc(O)c2)cc1 [resveratrol]
effect on CYP2D6 protein expression (CYP2D6 [1]): statistically significant CYP2D6 protein induction
decrease in the caffeine/paraxanthine metabolic ratio (CYP1A2 [13]; 4 weeks of 1 g daily): 16%
phenotypic index of CYP1A2 (CYP1A2 [13]): induces
phenotypic index of CYP3A4 (CYP3A4 [14]): inhibit
phenotypic index of CYP2D6 (CYP2D6 [15]): inhibit
phenotypic index of CYP2C9 (CYP2C9 [16]): inhibit
